“Also recorded” adds a separate entry of the source. Structures can show the parent of a compound that is named as a salt.
Columns and labels:
[1] = test system: myocardium; settings: background; cited from earlier work
[2] = test system: oxygen consumption of the myocardium; experiment: oxygen consumption of the myocardium (rate-pressure product); type: in vivo; settings: anaesthetized dog, 10 mg/kg intravenous, 100 before administration
Method: This comparative trial aimed at determining the respective capabilities of the two substances to reduce the oxygen consumption of the myocardium. This property was measured by the indirect method known as the "rate-pressure product" which is a widely used and accurate haemodynamic index of myocardial oxygen consumption.
This method requires two cardiovascular parameters to be measured simultaneously, namely the mean aortic systolic blood-pressure and the heart-rate.
The "rate-pressure product" is obtained by multiplying the number of heart beats per minute by the mean aortic systolic blood-pressure. This provides an index of the total amount of oxygen used by the myocardium over a period of one minute. As it thus represents an accurate indication of the oxygen consumption of the myocardium, any lowering of the "rate-pressure product" indicates a corresponding drop in the oxygen consumption of the myocardium.
These tests were carried out on dogs which had been previously anaesthetized with sodium pentobarbital (30 mg/kg by intravenous route).
In both cases, the injection of 10 mg/kg took 2 minutes to administer.

[3] = test system: patient; settings: clinical use; background; cited from earlier work
[4] = test system: cardiac frequency; experiment: cardiac frequency, 60 minutes experiment; type: in vivo; settings: dog, 10 mg/kg intravenous, during 60 minutes
Method: (§1) The same experimental conditions as above were observed and the following parameters were measured: […]

[5] = acute toxicity in rats; type: in vivo; settings: rat, in vivo, single administration, 12 days observation
Method: (§2) Finally, acute toxicity tests were carried out on rats and mice with Compound No. 7 and on rats with Compounds Nos. 13 and 14, the animals being kept under observation for 12 days following one single administration.

[6] = test system: rats; experiment: acute toxicity in rats; type: in vivo; settings: single administration, 12 days observation
Method: as §2

[7] = test system: stroke volume; experiment: stroke volume (cardiac output divided by heart-beats per minute); type: in vivo; settings: dog, 10 mg/kg intravenous; for Stroke Volume: initial value 100%
Method: The same experimental conditions as above were observed and the following parameters were measured:
Thus, in order to determine the effect of any particular substance on stroke volume, it is sufficient to divide cardiac output by the number of heart-beats per minute.

[8] = acute toxicity in mice; type: in vivo; settings: mouse, in vivo, single administration, 12 days observation
Method: as §2

[9] = test system: mice; experiment: acute toxicity in mice; type: in vivo; settings: single administration, 12 days observation
Method: as §2

[10] = test system: cardiac output; experiment: cardiac output; type: in vivo; settings: dog, 10 mg/kg intravenous
Method: as §1

[11] = test system: blood-flow to the myocardium; experiment: arterial coronary blood-flow (blood-flow to the myocardium); type: in vivo, dog; settings: 10 mg/kg intravenous
Method: (1) The capability of Compound No. 7 of increasing the blood-flow to the myocardium and thus stepping up the supply of oxygen to this muscle was determined in accordance with the technique described by R. CHARLIER and J. BAUTHIER in Arzneimittel Forschung "Drug Research" 23, 1305-1311 (1973).
Seven experiments were carried out on seven dogs, using a intravenous injection of 10 mg/kg of Compound No. 7. […] The increase in blood-flow was regular and the return to the control values took place progressively within twenty minutes.

SMILES: CC(C)NCC(O)COc1cccc2ccccc12 (racemic) [prapranolol]
- anti-adrenergic effect [1]: exert an anti-adrenergic effect
- cardiac frequency [1]: considerably reduce cardiac frequency
- cardiac functioning [1]: depress cardiac functioning
- oxygen requirements of the myocardium [1]: diminish the oxygen requirements of the myocardium
- supply of oxygen to the myocardium [1]: lower the supply of oxygen to the myocardium

SMILES: CCCCc1oc2ccccc2c1C(=O)c1cc(I)c(OCCN(CC)CC)c(I)c1 [Amiodarone, reference compound]
- Oxygen Consumption (rate-pressure product) ([2]; 2.5 minutes after): 80.9
- Oxygen Consumption (rate-pressure product) ([2]; 5 minutes after): 79.1
- Oxygen Consumption (rate-pressure product) ([2]; 10 minutes after): 81.7
- Oxygen Consumption (rate-pressure product) ([2]; 15 minutes after): 79.7
- Oxygen Consumption (rate-pressure product) ([2]; 20 minutes after): 79.6
- Oxygen Consumption (rate-pressure product) ([2]; 25 minutes after): 80.4
- Oxygen Consumption (rate-pressure product) ([2]; 30 minutes after): 80.2
- Oxygen Consumption (rate-pressure product) ([2]; 35 minutes after): 79.6
- Oxygen Consumption (rate-pressure product) ([2]; 40 minutes after): 79.6
- Oxygen Consumption (rate-pressure product) ([2]; 45 minutes after): 79.6
- Oxygen Consumption (rate-pressure product) ([2]; 50 minutes after): 80.9
- Oxygen Consumption (rate-pressure product) ([2]; 55 minutes after): 80.0
- Oxygen Consumption (rate-pressure product) ([2]; 60 minutes after): 79.1
- side-effects [3]: microdeposit in the cornea; also recorded: in a few rare cases, the development of a cutaneous sensitivity to light which can lead to a slate-coloured pigmentation of the skin; also recorded: dysfunction of the thyroid gland
- four qualities of an ideal anti-anginal agent [1]: possesses the four qualities

SMILES: CCCCc1oc2ccccc2c1C(=O)c1ccc(N(CCN(C)C)S(=O)(=O)c2ccc(C)cc2)cc1 [Compound 7, 2-n-butyl-3-[N-(2-dimethylaminoethyl)-N-(4-methyl-benzenesulfonyl)-4-amino-benzoyl]-benzofuran]
- cardiac frequency [4]: dropped to a highly significant degree during 60 minutes
- LD50 at 288 h ([5]; ip, intraperitoneal): 600 mg/kg
- LD50 at 288 h ([5]; po, intragastric): 1600 mg/kg
- LD0 ([6]; intragastric): 800 mg/kg
- LD95 ([6]; intragastric): 2400 mg/kg
- LD0 ([6]; intraperitoneal): 160 mg/kg
- LD95 ([6]; intraperitoneal): 1400 mg/kg
- Oxygen Consumption (rate-pressure product) ([2]; 2.5 minutes after): 54.4
- Oxygen Consumption (rate-pressure product) ([2]; 5 minutes after): 57.8
- Oxygen Consumption (rate-pressure product) ([2]; 10 minutes after): 63.5
- Oxygen Consumption (rate-pressure product) ([2]; 15 minutes after): 64.8
- Oxygen Consumption (rate-pressure product) ([2]; 20 minutes after): 64.8
- Oxygen Consumption (rate-pressure product) ([2]; 25 minutes after): 65.2
- Oxygen Consumption (rate-pressure product) ([2]; 30 minutes after): 65.6
- Oxygen Consumption (rate-pressure product) ([2]; 35 minutes after): 66.0
- Oxygen Consumption (rate-pressure product) ([2]; 40 minutes after): 66.8
- Oxygen Consumption (rate-pressure product) ([2]; 45 minutes after): 67.2
- Oxygen Consumption (rate-pressure product) ([2]; 50 minutes after): 67.6
- Oxygen Consumption (rate-pressure product) ([2]; 55 minutes after): 68.9
- Oxygen Consumption (rate-pressure product) ([2]; 60 minutes after): 68.9
- increase in stroke volume ([7]; during the first 5 minutes): above 100%
- Stroke Volume ([7]; 2.5 min): 213%
- Stroke Volume ([7]; 5 min): 200%
- Stroke Volume ([7]; 10 min): 172%
- Stroke Volume ([7]; 15 min): 152%
- Stroke Volume ([7]; 20 min): 143%
- Stroke Volume ([7]; 25 min): 136%
- Stroke Volume ([7]; 30 min): 137%
- Stroke Volume ([7]; 35 min): 138%
- Stroke Volume ([7]; 40 min): 127%
- Stroke Volume ([7]; 45 min): 127%
- Stroke Volume ([7]; 50 min): 130%
- Stroke Volume ([7]; 55 min): 120%
- Stroke Volume ([7]; 60 min): 117%
- performance of the cardiac muscle ([7]; conclusion in words): does not depress the performance of the cardiac muscle, and even stimulates this extremely important factor of cardiac functioning
- LD50 at 288 h ([8]; ip, intraperitoneal): 275 mg/kg
- LD50 at 288 h ([8]; po, intragastric): 2100 mg/kg
- LD0 ([9]; intragastric): 550 mg/kg
- LD95 ([9]; intragastric): 5000 mg/kg
- LD0 ([9]; intraperitoneal): 50 mg/kg
- LD95 ([9]; intraperitoneal): 900 mg/kg
- return of cardiac output to the control value [10]: ≤ 20 min
- increase in cardiac output ([10]; after 2.5 minutes): 70%
- increase in cardiac output ([10]; after 5 minutes): 50%
- return of blood-flow to the control values ([11]; dog, hydrochloride): twenty
- supply of oxygen to the myocardium ([11]; dog, conclusion in words): increases to a very marked degree the supply of oxygen to the myocardium
- maximal increase in blood-flow to the myocardium ([11]; seven dogs, after 3 minutes, hydrochloride): about 94%

SMILES: CCCCc1oc2ccccc2c1C(=O)c1ccc(N(CCCN(CCC)CCC)S(=O)(=O)c2ccc([N+](=O)[O-])cc2)cc1 [Compound 13, 2-n-butyl-3-[N-(3-di-n-propylaminopropyl)-N-(4-nitro-benzenesulfonyl)-4-amino-benzoyl]-benzofuran]
- LD50 at 288 h ([5]; ip, intraperitoneal): 1000 mg/kg
- LD0 ([6]; intraperitoneal): 180 mg/kg
- LD95 ([6]; intraperitoneal): 3000 mg/kg

SMILES: CCCCc1oc2ccccc2c1C(=O)c1ccc(N(CCCN(CCCC)CCCC)S(=O)(=O)c2ccc(OC)cc2)cc1 [Compound 14, 2-n-butyl-3-[N-(3-di-n-butylaminopropyl)-N-(4-methoxy-benzenesulfonyl)-4-amino-benzoyl]-benzofuran]
- LD50 at 288 h ([5]; ip, intraperitoneal): 1000 mg/kg
- LD0 ([6]; intraperitoneal): 200 mg/kg
- LD95 ([6]; intraperitoneal): 3000 mg/kg

SMILES: OCCN(CCO)c1nc(N2CCCCC2)c2nc(N(CCO)CCO)nc(N3CCCCC3)c2n1 [dipyridamole]
- anti-adrenergic effect [1]: do not inhibit the cardio-vascular reactions to adrenergic stimulants
- cardiac functioning [1]: do not depress the cardiac function
- oxygen requirements of the myocardium [1]: do not reduce the oxygen requirements of the myocardium
- supply of oxygen to the myocardium [1]: increase the supply of oxygen to the myocardium

SMILES: C1CCC(C(CC2CCCCN2)C2CCCCC2)CC1 (stereo not shown) [perhexiline maleate]
- anti-adrenergic effect [1]: does not possess any anti-adrenergic properties
- cardiac frequency [1]: diminishing cardiac frequency
- cardiac functioning [1]: does not appear to exert a depressant effect upon cardiac functioning
- oxygen requirements of the myocardium [1]: reducing the oxygen requirements of the myocardium
- supply of oxygen to the myocardium [1]: increasing the supply of oxygen to the myocardium

SMILES: CC(=O)Nc1ccc(OCC(O)CNC(C)C)cc1 (stereo not shown) [practolol]
- anti-adrenergic effect [1]: exert an anti-adrenergic effect
- cardiac frequency [1]: considerably reduce cardiac frequency
- cardiac functioning [1]: depress cardiac functioning
- oxygen requirements of the myocardium [1]: diminish the oxygen requirements of the myocardium
- supply of oxygen to the myocardium [1]: lower the supply of oxygen to the myocardium

SMILES: CC(Cc1ccccc1)NCCC(c1ccccc1)c1ccccc1 (stereo not shown) [prenylamine]
- anti-adrenergic effect [1]: do not inhibit the cardio-vascular reactions to adrenergic stimulants
- cardiac functioning [1]: do not depress the cardiac function
- oxygen requirements of the myocardium [1]: do not reduce the oxygen requirements of the myocardium
- supply of oxygen to the myocardium [1]: increase the supply of oxygen to the myocardium
